In brackets after ≈: the same amount, converted by molar mass. Like-named read-outs stand apart in the source and are kept apart here.
How the values were obtained:
[1] = DSC of DMPC bilayers with inhibitor; assay type: physicochemical; conditions: for Tm (main transition) / ΔH / ΔT1/2: 10 wt % inhibitor, PBS pH 7.4, heating
U2OS host cells = assay: U2OS host cell growth inhibition; conditions: read-out: T. cruzi CC50 (U20S)
Bacillus subtilis = assay: B. subtilis growth inhibition; assay type: cell-based; conditions: read-out: Bs IC50
[2] = DSC of DSPG bilayers with inhibitor; assay type: physicochemical; conditions: for Tm (main transition) / ΔH / ΔT1/2: 10 wt % inhibitor, PBS pH 7.4, heating
E. coli = E. coli growth inhibition; assay type: cell-based, Escherichia coli; conditions: for IC50: read-out: Ec IC50
M. smegmatis = M. smegmatis cell growth inhibition; assay type: cell-based, Mycobacterium smegmatis
M. tuberculosis HN878 = M. tuberculosis HN878 growth inhibition; assay type: cell-based, Mycobacterium tuberculosis; conditions: for MIC: HN878, read-out: Mtb HN878 MIC
[3] = system: M. abscessus smooth variant; assay: microbe, parasite or virus in culture; assay type: cell-based
M. tuberculosis H37Rv = M. tuberculosis H37Rv growth inhibition; assay type: cell-based, Mycobacterium tuberculosis; conditions: for MIC: Mycobacterium tuberculosis, H37RV, read-out: Mtb H37Rv MIC
[4] = system: T. cruzi Dm28c epimastigotes; assay: T. cruzi epimastigote growth inhibition; assay type: cell-based, Trypanosoma cruzi; conditions: read-out: T. cruzi IC50 (EPI)
[5] = system: L. donovani promastigotes; assay: L. donovani promastigote growth inhibition; assay type: cell-based, Leishmania donovani; conditions: read-out: L. donovani IC50
[6] = system: T. cruzi Dm28c intracellular amastigotes; assay: T. cruzi intracellular amastigote inhibition; assay type: cell-based, Trypanosoma cruzi; conditions: read-out: T. cruzi IC50 (PAR)
[7] = system: T. brucei bloodstream forms; assay: T. brucei bloodstream form growth inhibition; assay type: cell-based, Trypanosoma brucei; conditions: read-out: T. brucei IC50
[8] = system: M. abscessus rough variant; assay: microbe, parasite or virus in culture; assay type: cell-based
[9] = target: M. tuberculosis MmpL3 (MtMmpL3) (Mycobacterium tuberculosis, UniProt P9WJV5); assay: Surface plasmon resonance binding to MmpL3
Sequence of M. tuberculosis MmpL3 (MtMmpL3) (P9WJV5 whole entry): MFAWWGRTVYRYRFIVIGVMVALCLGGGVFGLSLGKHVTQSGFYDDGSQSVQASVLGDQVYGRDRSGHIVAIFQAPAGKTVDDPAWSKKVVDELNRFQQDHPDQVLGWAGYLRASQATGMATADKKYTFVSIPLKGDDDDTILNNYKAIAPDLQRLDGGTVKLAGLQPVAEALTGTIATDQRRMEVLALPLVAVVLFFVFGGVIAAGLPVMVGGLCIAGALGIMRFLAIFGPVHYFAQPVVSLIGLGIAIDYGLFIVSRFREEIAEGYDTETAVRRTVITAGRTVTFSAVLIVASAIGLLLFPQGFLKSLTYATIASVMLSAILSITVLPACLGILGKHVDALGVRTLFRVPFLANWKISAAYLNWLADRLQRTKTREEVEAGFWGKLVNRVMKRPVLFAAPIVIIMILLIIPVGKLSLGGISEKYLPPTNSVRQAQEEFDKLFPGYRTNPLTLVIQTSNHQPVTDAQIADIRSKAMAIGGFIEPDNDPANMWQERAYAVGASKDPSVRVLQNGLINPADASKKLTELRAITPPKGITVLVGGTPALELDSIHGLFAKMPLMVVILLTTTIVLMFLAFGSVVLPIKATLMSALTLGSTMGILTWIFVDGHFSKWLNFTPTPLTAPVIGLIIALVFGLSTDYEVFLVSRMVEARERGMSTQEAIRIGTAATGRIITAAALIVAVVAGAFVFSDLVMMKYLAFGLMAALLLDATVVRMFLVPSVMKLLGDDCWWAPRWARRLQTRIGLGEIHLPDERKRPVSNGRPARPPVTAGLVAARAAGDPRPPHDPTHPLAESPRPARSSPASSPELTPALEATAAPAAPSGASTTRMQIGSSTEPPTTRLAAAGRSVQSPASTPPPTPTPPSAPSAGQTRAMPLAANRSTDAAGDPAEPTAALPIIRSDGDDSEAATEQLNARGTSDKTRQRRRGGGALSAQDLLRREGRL

M. tuberculosis Erdman = M. tuberculosis Erdman growth inhibition; assay type: cell-based, Mycobacterium tuberculosis; conditions: for MIC: Mycobacterium tuberculosis, ERDMAN, read-out: Mtb Erdman MIC
[10] = system: L. mexicana promastigotes; assay: L. mexicana promastigote growth inhibition; assay type: cell-based, Leishmania mexicana; conditions: Leishmania mexicana, read-out: L. mexicana IC50, promastigotes
in vitro [11] = conditions: human
in vitro [12] = conditions: human; remark: listed apart in the source
[13] = system: Plasmodium falciparum asexual blood stages; assay: P. falciparum asexual blood stage; assay type: cell-based; conditions: for IC50: Plasmodium falciparum, read-out: PfABS IC50 (μM ± S.E.), asexual blood stages
[14] = read-out: Ms IC50, M. smegmatis
[15] = read-out: Mtb HN878 IC50, dose-response curves
[16] = read-out: KD, 1:1 model, 1:1 binding model, from ratio of rate constants
[17] = read-out: KD, 2-state, two-state model, from rate constants
[18] = Mycolicibacterium smegmatis, read-out: Ms IC50, M. smegmatis
[19] = Mycobacterium tuberculosis, HN878, read-out: Mtb HN878 IC50, dose-response curves
[20] = KD, 1:1 model, 1:1 binding model, from ratio of rate constants
[21] = KD, 2-state, two-state model, from rate constants

CCCCCCC1(NCCNCC=C(C)CCC=C(C)C)C2CC3CC(C2)CC1C3 (stereo not shown) [Compound 8f, N-(3,7-dimethylocta-2,6-dien-1-yl)-N´-(2-hexyladamantan-2-yl)ethane-1,2-diamine]
Tm (main transition) [1]: 13.8 °C
ΔH [1]: 5.88 kcal/mol
ΔT1/2 [1]: 5.1 °C
Broadening of main transition peak ΔΤ1/2 compared to pure DMPC ([1]; heating): 4.4 °C
Decrease of Tm compared to DMPC without inhibitor ([1]; heating): ~9.7 °C
CC50 (U2OS host cells): 4.1 ± 1 µM
IC50 (Bacillus subtilis): 1 µM
Tm (main transition) [2]: 49.1 °C
ΔH [2]: 8.75 kcal/mol
ΔT1/2 [2]: 1.7 °C
Broadening of main transition peak ΔΤ1/2 compared to pure DSPG ([2]; heating): 0.2–1.6 °C
Decrease of Tm compared to DSPG alone ([2]; heating): ~ 5 °C
IC50 (E. coli): 9.2 µM
IC50 (M. smegmatis; [14]): 4.7 µM
IC50 (M. tuberculosis HN878; [15]): 3.4 ± 0.6 µM
Mtb HN878 MIC (M. tuberculosis HN878; visual inspection): 3 µM
Ma(S) MIC [3]: 12 µM
Mtb H37Rv MIC (M. tuberculosis H37Rv): 12 µM
IC50 ([4]; epimastigotes): 8.2 ± 0.4 µM
IC50 ([5]; promastigotes): 8.8 ± 0.4 µM
IC50 ([6]; intracellular amastigotes in U2OS host cells): 1.3 ± 0.07 µM
IC50 ([7]; bloodstream forms): 0.98 ± 0.09 µM
Ma(R) MIC [8]: 12 µM
koff ([9]; 1:1 Langmuir binding model): 0.2964 s⁻¹
Kd [9, 16]: 67 µM
Kd [9, 17]: 81 µM
ka1 ([9]; two-state model): 4642 M⁻¹ s⁻¹
ka2 ([9]; two-state model): 0.008637 s⁻¹
kd1 ([9]; two-state model): 0.4552 s⁻¹
kd2 ([9]; two-state model): 0.03992 s⁻¹
Mtb Erdman MIC (M. tuberculosis Erdman): 12 µM

CC(C)=CCCC(C)=CCNC(=O)CNC1(C)C2CC3CC(C2)CC1C3 (stereo not shown) [Compound 14b, N-(3,7-dimethylocta-2,6-dien-1-yl)-2-((2-methyl-2-adamantanyl)amino)acetamide]
IC50 [10]: 2.4 ± 0.7 µM
Ec IC50 (E. coli): No inhibition
IC50 (M. smegmatis; [18]): 9 µM
IC50 (M. tuberculosis HN878; [19]): 4.9 ± 0.1 µM
MIC (M. tuberculosis HN878; Mycobacterium tuberculosis): 6.25 µM (≈ 2.24 µg/mL)
MIC (M. tuberculosis H37Rv): 30 µM (≈ 10.8 µg/mL)
viability at 20 µM (in vitro [11]): 94%
IC50 ([4]; Trypanosoma cruzi): 18 ± 4 µM
CC50 (in vitro [12]): 7.2 ± 0.9 µM
IC50 ([5]; Leishmania donovani): 11 ± 0.9 µM
IC50 [13]: 6.47 ± 0.65 µM
IC50 ([6]; Trypanosoma cruzi, U2OS): 2.3 ± 0.2 µM
IC50 ([7]; Trypanosoma brucei): 6.6 ± 0.03 µM
koff [9]: 0.751 s⁻¹
kon [9]: 1760 M⁻¹ s⁻¹
Kd [9, 20]: 426 µM
Kd [9, 21]: 531 µM
ka1 ([9]; two-state model): 1917 M⁻¹ s⁻¹
ka2 ([9]; two-state model): 0.009268 s⁻¹
kd1 ([9]; two-state model): 1.363 s⁻¹
kd2 ([9]; two-state model): 0.02741 s⁻¹
MIC (M. tuberculosis Erdman): 20 µM (≈ 7.17 µg/mL)

CC(C)=CCCC(C)=CCNCC(=O)NC(C)(C)C12CC3CC(CC(C3)C1)C2 [Compound 11, N-(2-(adamantan-1-yl)propan-2-yl)-2-((3,7-dimethylocta-2,6-dien-1-yl)amino)acetamide]
IC50 [10]: 5.2 ± 0.2 µM
Ec IC50 (E. coli): No inhibition
IC50 (M. smegmatis; [18]): 44 ± 4 µM
IC50 (M. tuberculosis HN878; [19]): 13 ± 2 µM
MIC (M. tuberculosis HN878; Mycobacterium tuberculosis): 12.5 µM (≈ 4.83 µg/mL)
MIC (M. tuberculosis H37Rv): 19 µM (≈ 7.35 µg/mL)
viability at 20 µM (in vitro [11]): 100%
IC50 ([4]; Trypanosoma cruzi): 16 ± 4 µM
CC50 (in vitro [12]): 6.9 ± 0.1 µM
IC50 ([5]; Leishmania donovani): 5 ± 0.6 µM
IC50 [13]: 7.63 ± 1.13 µM
IC50 ([6]; Trypanosoma cruzi, U2OS): 4.4 ± 0.3 µM
IC50 ([7]; Trypanosoma brucei): 6.2 ± 0.2 µM
MIC (M. tuberculosis Erdman): 19 µM (≈ 7.35 µg/mL)

CC(C)=CCCC(C)=CCNCCNC1(c2ncc(-c3ccccc3)s2)C2CC3CC(C2)CC1C3 (stereo not shown) [Compound 8i, N-(3,7-dimethylocta-2,6-dien-1-yl)-N´-(2-(5-phenylthiazol-2-yl)adamantan-2-yl)ethane-1,2-diamine]
IC50 (M. smegmatis; [14]): 21 µM
Ma(S) MIC [3]: 21.5 µM
Ma(R) MIC [8]: 21.5 µM
koff ([9]; 1:1 Langmuir binding model): 0.4902 s⁻¹
Kd [9, 16]: 87 µM
Kd [9, 17]: 91 µM
ka1 ([9]; two-state model): 3946 M⁻¹ s⁻¹
ka2 ([9]; two-state model): 0.006253 s⁻¹
kd1 ([9]; two-state model): 0.434 s⁻¹
kd2 ([9]; two-state model): 0.03057 s⁻¹

CCC1(NCCNCC=C(C)CCC=C(C)C)C2CC3CC(C2)CC1C3 (stereo not shown) [Compound 8c, N-(3,7-dimethylocta-2,6-dien-1-yl)-N′-(2-ethyladamantan-2-yl)ethane-1,2-diamine]
Tm (main transition) [1]: 16.9 °C
ΔH [1]: 5.74 kcal/mol
ΔT1/2 [1]: 2.0 °C
Decrease of Tm compared to DMPC without inhibitor ([1]; heating): ~6.6 °C
IC50 (Bacillus subtilis; Bacillus subtilis): 4.3 µM
Tm (main transition) [2]: 51.9 °C
ΔH [2]: 11.9 kcal/mol
ΔT1/2 [2]: 2.5 °C
Broadening of main transition peak ΔΤ1/2 compared to pure DSPG ([2]; heating): 0.2–1.6 °C
IC50 (E. coli; Escherichia coli): 18 µM
IC50 (M. smegmatis; [18]): 4 µM
IC50 (M. tuberculosis HN878; [19]): 2 to 3 µM
MIC (M. tuberculosis HN878; Mycobacterium tuberculosis): 1.6 µM (≈ 0.574 µg/mL)
IC50 (M. tuberculosis HN878; [15]): 1.9 ± 0.06 µM
MIC ([3]; Mycobacteroides abscessus, read-out: Ma(S) MIC): 22 µM (≈ 7.89 µg/mL)
MIC (M. tuberculosis H37Rv): 6.8 µM (≈ 2.44 µg/mL)
viability at 2 µM (in vitro [11]): 85%
viability at 20 µM (in vitro [11]): 43%
IC50 ([4]; Trypanosoma cruzi): 8 ± 2 µM
CC50 (in vitro [12]): 2.5 ± 0.3 µM
IC50 ([5]; Leishmania donovani): 2.1 ± 0.4 µM
IC50 [13]: 0.16 ± 0.07 µM
Increased potency against PfABS compared to SQ109 ([13]; versus SQ109 1.6 μM): ~ 10 fold
IC50 ([6]; Trypanosoma cruzi, U2OS): 1.3 ± 0.06 µM
IC50 ([7]; Trypanosoma brucei): 1.4 ± 0.2 µM
MIC ([8]; Mycobacteroides abscessus, read-out: Ma(R) MIC): 10.7 µM (≈ 3.84 µg/mL)
koff [9]: 0.841 s⁻¹
kon [9]: 4710 M⁻¹ s⁻¹
Kd [9, 20]: 180 µM
Kd [9, 21]: 190 µM
ka1 ([9]; two-state model): 5473 M⁻¹ s⁻¹
ka2 ([9]; two-state model): 0.006994 s⁻¹
kd1 ([9]; two-state model): 1.284 s⁻¹
kd2 ([9]; two-state model): 0.03012 s⁻¹
MIC (M. tuberculosis Erdman): 6.8 µM (≈ 2.44 µg/mL)
